Experimental data reported in PubChem BioAssay (NCI).
Several values for one entry are separate records, joined by “and”; a condition that tells them apart may be missing. Equal values may be shown once.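 Growth conditions: 96-well plates. Treatment: test compound, 48 hours, 5 concentrations. Analysis: linear interpolation between bracketing concentrations; unreached endpoints set to highest concentration. The concentration for 50% growth inhibition is given as GI50. The concentration for full growth arrest is given as TGI.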

Experiments:
Experiment in all cases: NCI anticancer screen, dose series, 48 h
RPMI-8226 leukemia = tested on: RPMI-8226 leukemia
COLO 205 colon = tested on: COLO 205 colon
NCI-H226 lung = tested on: NCI-H226 lung
HOP-62 NSCLC = tested on: HOP-62 NSCLC
SK-MEL-28 melanoma = tested on: SK-MEL-28 melanoma
HCT-116 colon = tested on: HCT-116 colon
TK-10 renal = tested on: TK-10 renal
A549 NSCLC = tested on: A549 NSCLC
SNB-19 CNS = tested on: SNB-19 CNS
HOP-92 NSCLC = tested on: HOP-92 NSCLC

Compound | GI50 (RPMI-8226 leukemia) | TGI (RPMI-8226 leukemia) | GI50 (COLO 205 colon) | TGI (COLO 205 colon) | GI50 (NCI-H226 lung) | TGI (NCI-H226 lung) | GI50 (HOP-62 NSCLC) | TGI (HOP-62 NSCLC) | GI50 (SK-MEL-28 melanoma) | TGI (SK-MEL-28 melanoma) | GI50 (HCT-116 colon) | TGI (HCT-116 colon) | GI50 (TK-10 renal) | TGI (TK-10 renal) | GI50 (A549 NSCLC) | TGI (A549 NSCLC) | GI50 (SNB-19 CNS) | TGI (SNB-19 CNS) | GI50 (HOP-92 NSCLC) [nM] | TGI (HOP-92 NSCLC)
O=C(CN1CCN(c2ncccn2)CC1)Nc1ccc(Cl)cc1C(=O)c1ccccc1Cl | 9510 nM | > 100000 nM | > 100000 nM | > 100000 nM | > 100000 nM | > 100000 nM | 13200 nM | 57500 nM | > 100000 nM | > 100000 nM | 78700 nM | > 100000 nM | > 100000 nM | > 100000 nM | 47600 nM | > 100000 nM | > 100000 nM | > 100000 nM | 5730 | 75100 nM
CN1CC[C@@H](c2c(O)cc(O)c3c(=O)cc(-c4ccccc4Cl)oc23)[C@@H](O)C1 | 75.3 nM and 27.4 nM | 233 nM and 1360 nM | 91.7 nM | 223 nM and 116 nM | 52.2 nM | 301 nM and 821 nM | 117 nM and 38.4 nM | – | 101 nM and 90.2 nM | 294 nM and 1450 nM | 33.8 nM and 25.8 nM | 27500 nM | 119 nM and 93.7 nM | 34800 nM | 79.3 nM and 161 nM | 33800 nM | 103 nM | > 37300 nM | 104 | 517 nM and 1870 nM
COc1cc(C2C=C(c3cccc(NC(C)=O)c3)Nc3ncnn32)cc(OC)c1OC (stereo not given) | 3350 nM | 32500 nM | 308 nM | 1730 nM | 667 nM | > 100000 nM | 554 nM | > 100000 nM | 290 nM | > 100000 nM | 424 nM | > 70200 nM | 7550 nM | > 100000 nM | 6680 nM | > 100000 nM | 1210 nM | > 100000 nM | – | > 65100 nM
C[C@@H]1C[C@@H](O)[C@]2(O)O[C@@H]3C[C@@]4(C=O)[C@@H](CC[C@@H]5[C@@H]4CC[C@]4(C)[C@@H](C6=CC(=O)OC6)CC[C@]54O)C[C@H]3O[C@@H]2O1 | – | 75.2 nM | 108 nM and 25 nM | 82.6 nM and 277 nM and 91.8 nM | 188 nM and 33.3 nM | 85.7 nM and 529 nM and 116 nM | 14.3 nM and 5 nM | 57.6 nM and 67 nM and 70.9 nM | 167 nM and 40.9 nM | 143 nM and 683 nM and 354 nM | 19.7 nM | 53.2 nM and 122 nM | 20.2 nM and 5 nM | 98 nM and 77.5 nM and 55.8 nM | 14.6 nM | 11.7 nM and 41.3 nM | 101 nM and 19.7 nM | 145 nM and 217 nM and 184 nM | 135 | 234 nM and 683 nM
COc1ccc(C(=O)/C(Br)=C/C(=O)O)cc1 | 7570 nM | 110000 nM and 78600 nM | 15100 nM | 34400 nM and 54200 nM | 39100 nM | 148000 nM and 145000 nM | 24100 nM | 58300 nM and 50300 nM | – | 89100 nM and 89400 nM | 25900 nM and 25400 nM | 81300 nM and 65800 nM | 113000 nM | 167000 nM and 285000 nM | 25200 nM | 275000 nM and 246000 nM | 56300 nM | 188000 nM and 375000 nM | – | 93700 nM and 93600 nM
CCC[CH2][Sn-]([CH2]CCC)([CH2]CCC)[O]c1cc(Cl)c(Cl)cc1Cl | 137 nM | 853 nM | 191 nM | 400 nM | 8.72 nM | 244 nM | 228 nM | 507 nM | 167 nM | 365 nM | 154 nM | 318 nM | 287 nM | 957 nM | 205 nM | 502 nM | 143 nM | 445 nM | 106 | 395 nM
CCOC(=O)[C@@]1(C)C=C2O[C@@H]3OC4(CCCCC4)O[C@@H]3C2=C2C(O)=CC=C(O)[C@]21C(=O)OC | – | > 68000 nM | – | > 68000 nM | – | > 68000 nM | – | > 68000 nM | – | > 68000 nM | – | > 68000 nM | – | > 68000 nM | – | > 68000 nM | – | > 68000 nM | – | 33800 nM
O=C(NNc1nc(Cl)nc(N2CCN(C(c3ccccc3)c3ccccc3)CC2)n1)c1ccccc1 | 3790 nM | > 100000 nM | 2040 nM | 4640 nM | 7250 nM | 25800 nM | 1880 nM | 4040 nM | 1750 nM | 3250 nM | 1620 nM | 3060 nM | > 100000 nM | > 100000 nM | 13500 nM | 30500 nM | 1760 nM | 3330 nM | 1720 | 3680 nM
O=C(O)CSc1n[nH]c(-c2ccc(O)cc2)n1 | – | > 100000 nM | – | > 100000 nM | – | > 100000 nM | – | > 100000 nM | – | > 100000 nM | – | > 100000 nM | – | > 100000 nM | – | > 100000 nM | – | > 100000 nM | – | > 100000 nM
O=C(Nc1ccc(N2CCNCC2)cc1)c1[nH]ncc1Nc1ncnc2sc3c(c12)CCC3 | 670 nM | 3580 nM | 124 nM | 1310 nM | 548 nM | 2560 nM | 621 nM | 2790 nM | 1000 nM | 2290 nM | 109 nM | 297 nM | 410 nM | 2050 nM | 136 nM | 696 nM | 274 nM | 1690 nM | 30.2 | 1910 nM
CCOC(=O)c1ccc(NC(=O)N2CC(C)OC(C)C2)cc1 (stereo not given) | > 100000 nM | > 100000 nM | > 100000 nM | > 100000 nM | > 100000 nM | > 100000 nM | > 100000 nM | > 100000 nM | > 100000 nM | > 100000 nM | > 100000 nM | > 100000 nM | > 100000 nM | > 100000 nM | > 100000 nM | > 100000 nM | > 100000 nM | > 100000 nM | > 100000 | > 100000 nM
COc1ccc2c(c1)/C(=C\c1c(C)nc3sc(C)cn13)C(=O)N2C | 4750 nM | > 100000 nM | 3420 nM | 49800 nM | 2740 nM | 15900 nM | 20500 nM | > 100000 nM | 7260 nM | 35500 nM | 6000 nM | > 100000 nM | 4350 nM | 37800 nM | 30700 nM | > 100000 nM | 4080 nM | > 100000 nM | 7420 | 37000 nM
C=C1C(=O)O[C@H]2[C@H]1CC/C(COC(=O)c1cc3cc(F)ccc3[nH]1)=C\CC[C@@]1(C)O[C@@H]21 | 2000 nM | 7090 nM | 1640 nM | 3370 nM | 1760 nM | 3520 nM | 2920 nM | 14900 nM | 1790 nM | 3690 nM | 1500 nM | 2960 nM | 1830 nM | 3300 nM | 3080 nM | 8730 nM | 5040 nM | 21000 nM | 1380 | 3210 nM
